Laboratory results reported in ChEMBL document CHEMBL4706479, “Novel Aryloxyethyl Derivatives of 1-(1-Benzoylpiperidin-4-yl)methanamine as the Extracellular Regulated Kinases 1/2 (ERK1/2) Phosphorylation-Preferring Serotonin 5-HT Receptor-Biased Agonists with Robust Antidepressant-like Activity” (J Med Chem, 2019).
The source made the active and inactive calls. No cut-off for these calls is given here.

Tests used:
[1] = target: T1, Adrenergic receptor alpha-1 (Rattus norvegicus, UniProt P15823+P23944+P43140); assay: Displacement of [3H]-prazosin from alpha1 adrenergic receptor in rat cortex measured after 30 mins by microbeta2 scintillation counting method; format: tissue-based
T1 sequence (P15823 whole entry): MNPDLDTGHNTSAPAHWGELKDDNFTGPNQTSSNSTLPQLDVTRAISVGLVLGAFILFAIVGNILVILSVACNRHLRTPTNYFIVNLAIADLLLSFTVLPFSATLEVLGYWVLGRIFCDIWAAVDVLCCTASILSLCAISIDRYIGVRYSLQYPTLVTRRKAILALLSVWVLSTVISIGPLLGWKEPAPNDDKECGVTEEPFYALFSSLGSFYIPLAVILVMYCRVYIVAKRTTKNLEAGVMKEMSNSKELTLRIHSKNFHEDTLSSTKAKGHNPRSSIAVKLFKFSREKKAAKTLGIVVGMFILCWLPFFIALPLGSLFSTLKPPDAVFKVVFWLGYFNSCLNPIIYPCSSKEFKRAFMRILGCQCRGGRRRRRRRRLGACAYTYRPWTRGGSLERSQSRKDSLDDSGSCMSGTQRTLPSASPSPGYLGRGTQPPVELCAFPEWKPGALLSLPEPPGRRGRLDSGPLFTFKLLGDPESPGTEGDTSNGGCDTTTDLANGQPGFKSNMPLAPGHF
T1 sequence (P23944 whole entry): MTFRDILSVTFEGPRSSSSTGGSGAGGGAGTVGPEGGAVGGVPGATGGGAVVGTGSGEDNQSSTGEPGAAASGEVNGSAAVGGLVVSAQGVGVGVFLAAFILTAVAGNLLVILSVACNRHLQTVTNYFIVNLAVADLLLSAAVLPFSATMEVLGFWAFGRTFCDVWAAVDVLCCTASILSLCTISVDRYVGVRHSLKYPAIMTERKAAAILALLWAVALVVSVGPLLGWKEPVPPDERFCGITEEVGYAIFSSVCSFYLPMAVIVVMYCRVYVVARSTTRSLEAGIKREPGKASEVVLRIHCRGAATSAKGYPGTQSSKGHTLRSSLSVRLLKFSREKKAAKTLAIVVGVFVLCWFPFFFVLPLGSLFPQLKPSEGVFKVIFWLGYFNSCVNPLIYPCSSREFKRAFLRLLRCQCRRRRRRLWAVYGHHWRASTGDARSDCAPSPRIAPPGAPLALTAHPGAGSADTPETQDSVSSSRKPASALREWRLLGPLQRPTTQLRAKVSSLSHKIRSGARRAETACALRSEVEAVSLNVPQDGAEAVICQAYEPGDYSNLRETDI
T1 sequence (P43140 whole entry): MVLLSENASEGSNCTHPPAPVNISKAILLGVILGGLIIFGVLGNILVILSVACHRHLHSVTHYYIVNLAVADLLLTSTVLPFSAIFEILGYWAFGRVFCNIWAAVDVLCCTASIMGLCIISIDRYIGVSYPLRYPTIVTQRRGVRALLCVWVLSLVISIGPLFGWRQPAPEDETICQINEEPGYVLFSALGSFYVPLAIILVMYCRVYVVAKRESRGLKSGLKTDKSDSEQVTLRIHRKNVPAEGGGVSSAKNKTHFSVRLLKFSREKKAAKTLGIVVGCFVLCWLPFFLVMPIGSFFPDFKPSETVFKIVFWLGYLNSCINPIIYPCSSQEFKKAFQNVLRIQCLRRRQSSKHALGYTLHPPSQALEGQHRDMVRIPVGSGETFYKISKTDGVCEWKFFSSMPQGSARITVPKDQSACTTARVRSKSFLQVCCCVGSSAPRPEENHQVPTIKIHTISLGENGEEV

[2] = target: Alpha-1A adrenergic receptor (Homo sapiens) (UniProt P35348); assay: Inhibition of adrenergic alpha-1A receptor (unknown origin) at 10 uM relative to control
[3] = target: Alpha-1B adrenergic receptor (Homo sapiens) (UniProt P35368); assay: Inhibition of adrenergic alpha-1B receptor (unknown origin) at 1 uM relative to control
[4] = target: Alpha-1A adrenergic receptor (Homo sapiens) (UniProt P35348); assay: Inhibition of adrenergic alpha-1A receptor (unknown origin) at 1 uM relative to control
[5] = target: T2, D(2) dopamine receptor (Homo sapiens, UniProt P14416); assay: Inhibition of dopamine D2S receptor (unknown origin) at 10 uM relative to control
[6] = target: D(3) dopamine receptor (Homo sapiens) (UniProt P35462); assay: Inhibition of dopamine D3 receptor (unknown origin) at 1 uM relative to control
[7] = target: T2, D(2) dopamine receptor; assay: Inhibition of dopamine D2S receptor (unknown origin) at 1 uM relative to control
[8] = target: Muscarinic acetylcholine receptor M3 (Homo sapiens) (UniProt P20309); assay: Inhibition of muscarinic M3 receptor (unknown origin) at 10 uM relative to control
[9] = target: Mu-type opioid receptor (Homo sapiens) (UniProt P35372); assay: Inhibition of mu opioid receptor (unknown origin) at 10 uM relative to control
[10] = target: Glucocorticoid receptor (Homo sapiens) (UniProt P04150); assay: Inhibition of glucocorticoid receptor (unknown origin) at 10 uM relative to control
[11] = target: Sodium-dependent dopamine transporter (Homo sapiens) (UniProt Q01959); assay: Inhibition of dopamine transporter (unknown origin) at 10 uM relative to control
[12] = target: Sodium-dependent noradrenaline transporter (Homo sapiens) (UniProt P23975); assay: Inhibition of norepinephrine transporter (unknown origin) at 10 uM relative to control
[13] = target: Neuronal acetylcholine receptor; alpha4/beta2 (Homo sapiens) (UniProt P17787+P43681); assay: Inhibition of nicotinic acetylcholine receptor alpha4beta2 (unknown origin) at 10 uM relative to control; format: protein-complex assay
[14] = target: T3, hERG (KCNH2) (Homo sapiens, UniProt Q12809); assay: Displacement of [3H]-dofetilide from human ERG (unknown origin) at 10 uM relative to control; details: probe [3H]-dofetilide
[15] = species on record: Homo sapiens; assay: Inhibition of potassium channel (unknown origin) at 10 uM relative to control
[16] = species on record: Homo sapiens; assay: Inhibition of sodium channel site2 (unknown origin) at 10 uM relative to control
[17] = target: cGMP-inhibited 3',5'-cyclic phosphodiesterase 3A (Homo sapiens) (UniProt Q14432); assay: Inhibition of PDE3A (unknown origin) at 10 uM relative to control
[18] = target: T3, hERG (KCNH2); assay: Inhibition of human ERG at 0.1 uM by patch clamp technique relative to control
[19] = test system: Rattus norvegicus; assay: Antidepressant-like activity in Wistar rat assessed as reduction in immobility time at […], po administered 15 mins prior to testing and measured for 5 mins test period by Porsolt-forced swim test; format: functional, organism-based; details: time 20.0 min
[20] = test system: Rattus norvegicus; assay: Antidepressant-like activity in Wistar rat assessed as minimum effective dose causing reduction in immobility time after oral administration with compound 15 mins prior to testing and measured for 5 mins test period by Porsolt-forced swim test; format: functional; details: 20 min, read-out: MED
[21] = Effect on spontaneous locomotor activity in Wistar rat at 0.04 to […], po after 60 mins in presence of 5-HT1A antagonist WAY100635 by open field test; format: organism-based; details: in vivo, 1 h, dose 0.04-2.5 mg/kg

T2 sequence (P14416 whole entry): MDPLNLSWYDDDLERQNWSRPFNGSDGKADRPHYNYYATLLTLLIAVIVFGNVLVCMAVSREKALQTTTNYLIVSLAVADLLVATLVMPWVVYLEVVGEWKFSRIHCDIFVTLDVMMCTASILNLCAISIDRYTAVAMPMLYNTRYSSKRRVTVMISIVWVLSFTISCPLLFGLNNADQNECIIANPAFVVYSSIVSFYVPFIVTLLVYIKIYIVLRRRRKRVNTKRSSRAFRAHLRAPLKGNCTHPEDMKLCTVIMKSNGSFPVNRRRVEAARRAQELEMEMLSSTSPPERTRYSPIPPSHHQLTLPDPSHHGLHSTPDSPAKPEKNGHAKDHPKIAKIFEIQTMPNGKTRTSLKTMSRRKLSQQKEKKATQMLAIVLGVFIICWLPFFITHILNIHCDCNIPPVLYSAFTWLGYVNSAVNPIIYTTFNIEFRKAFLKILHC
Alpha-1A adrenergic receptor (Homo sapiens), sequence (P35348 whole entry): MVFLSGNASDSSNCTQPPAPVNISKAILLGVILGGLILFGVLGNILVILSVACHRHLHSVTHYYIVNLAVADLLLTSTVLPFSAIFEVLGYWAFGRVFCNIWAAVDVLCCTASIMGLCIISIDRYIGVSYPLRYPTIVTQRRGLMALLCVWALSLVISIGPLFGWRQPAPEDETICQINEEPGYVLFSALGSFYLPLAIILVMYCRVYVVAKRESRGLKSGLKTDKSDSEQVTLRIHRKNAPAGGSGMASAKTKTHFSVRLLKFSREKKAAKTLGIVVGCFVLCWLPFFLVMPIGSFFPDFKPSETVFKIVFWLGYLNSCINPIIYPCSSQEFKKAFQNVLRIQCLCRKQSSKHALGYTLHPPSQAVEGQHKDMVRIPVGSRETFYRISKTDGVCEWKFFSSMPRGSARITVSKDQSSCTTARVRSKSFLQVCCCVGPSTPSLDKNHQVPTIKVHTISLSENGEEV
T3 sequence (Q12809 whole entry): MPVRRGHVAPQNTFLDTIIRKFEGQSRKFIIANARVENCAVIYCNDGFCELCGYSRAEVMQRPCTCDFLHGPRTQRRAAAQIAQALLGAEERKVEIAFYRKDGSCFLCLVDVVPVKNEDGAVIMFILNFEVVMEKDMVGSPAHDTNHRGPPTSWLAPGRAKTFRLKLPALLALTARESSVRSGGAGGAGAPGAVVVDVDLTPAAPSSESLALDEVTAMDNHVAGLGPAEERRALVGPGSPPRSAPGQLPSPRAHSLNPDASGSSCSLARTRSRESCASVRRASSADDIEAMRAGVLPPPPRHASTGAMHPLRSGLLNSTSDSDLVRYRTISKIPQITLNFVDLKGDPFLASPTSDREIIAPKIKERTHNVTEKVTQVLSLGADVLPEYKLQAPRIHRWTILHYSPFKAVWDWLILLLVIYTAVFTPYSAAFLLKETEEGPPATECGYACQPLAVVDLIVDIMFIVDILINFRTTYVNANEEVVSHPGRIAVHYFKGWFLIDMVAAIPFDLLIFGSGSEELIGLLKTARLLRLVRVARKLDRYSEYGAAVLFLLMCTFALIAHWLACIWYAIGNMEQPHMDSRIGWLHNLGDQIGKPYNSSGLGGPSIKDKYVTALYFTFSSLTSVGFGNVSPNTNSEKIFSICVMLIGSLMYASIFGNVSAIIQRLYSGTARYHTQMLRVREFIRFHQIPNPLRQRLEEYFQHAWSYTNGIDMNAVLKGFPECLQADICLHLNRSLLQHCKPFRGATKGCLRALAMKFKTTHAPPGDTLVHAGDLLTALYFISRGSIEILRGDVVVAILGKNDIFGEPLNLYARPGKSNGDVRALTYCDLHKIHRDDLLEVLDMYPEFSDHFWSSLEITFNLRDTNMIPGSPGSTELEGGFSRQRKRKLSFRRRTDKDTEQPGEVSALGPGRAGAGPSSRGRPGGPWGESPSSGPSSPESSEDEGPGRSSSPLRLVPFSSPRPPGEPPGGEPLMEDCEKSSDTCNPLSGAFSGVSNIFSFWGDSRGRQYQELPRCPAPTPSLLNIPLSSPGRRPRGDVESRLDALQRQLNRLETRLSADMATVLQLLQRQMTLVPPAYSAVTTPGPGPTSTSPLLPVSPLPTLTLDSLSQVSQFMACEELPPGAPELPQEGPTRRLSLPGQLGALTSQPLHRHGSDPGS
Mu-type opioid receptor (Homo sapiens), sequence (P35372 whole entry): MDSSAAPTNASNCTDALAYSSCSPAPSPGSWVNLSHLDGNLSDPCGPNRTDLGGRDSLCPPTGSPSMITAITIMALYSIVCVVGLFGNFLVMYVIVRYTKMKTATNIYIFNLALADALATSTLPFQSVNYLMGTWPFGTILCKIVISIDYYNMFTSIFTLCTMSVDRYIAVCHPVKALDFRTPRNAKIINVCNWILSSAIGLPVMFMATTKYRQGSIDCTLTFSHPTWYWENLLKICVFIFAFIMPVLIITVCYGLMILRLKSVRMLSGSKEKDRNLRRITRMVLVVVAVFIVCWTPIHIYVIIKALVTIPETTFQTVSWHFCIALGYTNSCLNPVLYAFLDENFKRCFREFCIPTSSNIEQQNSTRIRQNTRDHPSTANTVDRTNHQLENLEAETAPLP
Alpha-1B adrenergic receptor (Homo sapiens), sequence (P35368 whole entry): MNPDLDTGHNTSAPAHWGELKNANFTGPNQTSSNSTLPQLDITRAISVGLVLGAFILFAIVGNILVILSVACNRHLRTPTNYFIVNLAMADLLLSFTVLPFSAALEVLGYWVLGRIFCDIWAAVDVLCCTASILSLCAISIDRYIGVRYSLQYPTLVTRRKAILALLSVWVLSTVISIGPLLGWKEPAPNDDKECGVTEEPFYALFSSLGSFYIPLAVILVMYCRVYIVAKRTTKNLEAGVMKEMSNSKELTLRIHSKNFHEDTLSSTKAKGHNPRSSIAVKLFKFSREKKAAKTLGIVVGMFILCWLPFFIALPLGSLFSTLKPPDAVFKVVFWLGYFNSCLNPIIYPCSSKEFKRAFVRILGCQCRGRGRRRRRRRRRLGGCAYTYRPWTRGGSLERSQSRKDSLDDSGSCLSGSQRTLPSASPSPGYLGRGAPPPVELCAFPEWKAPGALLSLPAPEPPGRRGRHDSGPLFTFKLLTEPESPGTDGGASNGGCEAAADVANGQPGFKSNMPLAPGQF
Muscarinic acetylcholine receptor M3 (Homo sapiens), sequence (P20309 whole entry, looked up): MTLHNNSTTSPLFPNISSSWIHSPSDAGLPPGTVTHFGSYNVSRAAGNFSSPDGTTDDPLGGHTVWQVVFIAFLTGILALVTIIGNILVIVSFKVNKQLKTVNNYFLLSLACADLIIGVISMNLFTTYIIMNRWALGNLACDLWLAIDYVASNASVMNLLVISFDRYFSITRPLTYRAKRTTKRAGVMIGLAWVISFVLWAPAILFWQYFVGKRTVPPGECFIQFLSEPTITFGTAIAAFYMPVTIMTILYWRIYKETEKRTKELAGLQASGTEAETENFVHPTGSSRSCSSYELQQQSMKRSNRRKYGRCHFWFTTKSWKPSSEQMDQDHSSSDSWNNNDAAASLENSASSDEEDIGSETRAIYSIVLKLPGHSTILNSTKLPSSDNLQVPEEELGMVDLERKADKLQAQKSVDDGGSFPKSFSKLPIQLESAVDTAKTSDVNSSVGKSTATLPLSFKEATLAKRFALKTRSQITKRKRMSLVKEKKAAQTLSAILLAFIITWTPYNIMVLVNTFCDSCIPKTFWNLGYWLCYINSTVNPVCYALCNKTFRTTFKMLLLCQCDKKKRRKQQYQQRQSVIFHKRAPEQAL
D(3) dopamine receptor (Homo sapiens), sequence (P35462 whole entry): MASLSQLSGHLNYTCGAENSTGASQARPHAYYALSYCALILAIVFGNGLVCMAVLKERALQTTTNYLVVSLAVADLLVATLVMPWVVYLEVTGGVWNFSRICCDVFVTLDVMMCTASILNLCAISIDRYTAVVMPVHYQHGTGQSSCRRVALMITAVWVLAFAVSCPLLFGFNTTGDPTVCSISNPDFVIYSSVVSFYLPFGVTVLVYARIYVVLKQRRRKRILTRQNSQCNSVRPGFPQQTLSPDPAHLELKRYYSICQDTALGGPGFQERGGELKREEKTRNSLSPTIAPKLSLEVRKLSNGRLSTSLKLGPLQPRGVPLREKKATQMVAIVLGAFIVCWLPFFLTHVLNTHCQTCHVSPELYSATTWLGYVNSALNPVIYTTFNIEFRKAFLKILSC
Glucocorticoid receptor (Homo sapiens), sequence (P04150 whole entry): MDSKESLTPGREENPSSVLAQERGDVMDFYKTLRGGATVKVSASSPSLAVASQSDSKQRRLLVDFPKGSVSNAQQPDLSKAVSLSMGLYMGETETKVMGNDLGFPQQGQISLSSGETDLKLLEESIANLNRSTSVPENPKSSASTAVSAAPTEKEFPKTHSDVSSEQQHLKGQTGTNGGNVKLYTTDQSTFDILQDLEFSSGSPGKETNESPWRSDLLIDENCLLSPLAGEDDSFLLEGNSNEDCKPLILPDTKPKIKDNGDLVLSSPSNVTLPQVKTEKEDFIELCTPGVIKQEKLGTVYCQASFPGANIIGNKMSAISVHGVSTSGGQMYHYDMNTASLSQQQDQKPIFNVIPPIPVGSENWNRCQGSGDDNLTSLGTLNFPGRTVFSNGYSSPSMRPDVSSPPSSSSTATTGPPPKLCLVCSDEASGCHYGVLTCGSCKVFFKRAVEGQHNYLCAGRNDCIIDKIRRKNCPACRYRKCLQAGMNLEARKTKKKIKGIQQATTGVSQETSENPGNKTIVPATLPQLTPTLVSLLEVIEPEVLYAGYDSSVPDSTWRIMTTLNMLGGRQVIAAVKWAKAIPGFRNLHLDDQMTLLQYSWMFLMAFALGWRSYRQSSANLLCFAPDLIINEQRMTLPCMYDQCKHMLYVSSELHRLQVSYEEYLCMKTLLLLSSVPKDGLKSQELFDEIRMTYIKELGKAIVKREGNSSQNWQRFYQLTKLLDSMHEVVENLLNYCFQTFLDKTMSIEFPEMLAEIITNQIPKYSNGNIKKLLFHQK

Compound `O=C(c1ccc(F)c(Cl)c1)N1CCC(F)(CNCCOc2ccccn2)CC1` has a pKi [1] of 6.78, an inhibition [2] of 99.7% and an inhibition [3] of 32.2%. It also gave an inhibition [4] of 87.6%, an inhibition [5] of 91.3% and an inhibition [6] of 39.1%. The inhibition [7] was 9.5%, the inhibition [8] was 9.7% and the inhibition [9] was 42.9%. It also gave an inhibition [10] of -5.1%, an inhibition [11] of 20.4% and an inhibition [12] of -2%. The inhibition [13] was -5.4%, the inhibition at 10 µM [14] was 16.2% and the inhibition [15] was 3.8%. It also gave an inhibition [16] of 48.8%, an inhibition [17] of -3.9% and an inhibition at 0.1 µM [18] of 0.1%. For the same compound, the Activity [19] was “Active”, the minimal effective dose [20] was 0.16 mg/kg and the Activity [21] was “Non-Toxic”.
